Data published in patent publication US20240116885A1, “BENZOTHIAZOLE AND QUINOLINE DERIVATIVES AND THEIR USE” (Shanghai Yao Yuan Biotechnology Co., Ltd., priority 2020, published 2024).
Counter-ions that a name gives are not always drawn.

Legend:
[1] = molecular target: hALPK1-V1092A (Homo sapiens (Human), UniProt Q96QP1, V1092A); test: Inhibition of IL-8 secretion in HEK293 cells transiently transfected with hALPK1-V1092A; type: cell-based; conditions: transient transfection, 24 hours with compound, IL-8 ELISA, relative to wild-type HEK293 cells; read-out: Half maximal inhibitory concentration (IC50) of IL-8 secretion in cells expressing V1092A mutant
Description: (§1) Activating mutations in ALPK1 are associated with diseases and disorders such as cancer, spiroandenoma, spiroandenocarcinoma, ROSAH syndrome, and PFAPA syndrome. We conducted further experiments to evaluate the ability of representative compounds to inhibit ALPK1 in the context of two activating mutations, T237M and V1092A. In preliminary experiments we determined that IL-8 protein secretion was elevated in cells transiently transfected with human ALPK1 expression vectors containing each of these activating mutations. Accordingly, we used IL-8 secretion as an indicator of activated ALPK1 inhibition in cells expressing these mutations.
(§2) HEK293 cells were cultured as described above prior to transient transfection with either empty vector or an expression vector encoding (i) human ALPK1 (hALPK1), (ii) hALPK1 with the T237M activating mutation (hALPK1-T237M) (iii) hALPK1 with the V1092A activating mutation (hALPK1-V1092A), or (iv) a kinase dead ALPK1 mutant (hALPK1-T237M-D1194S). Transfection was performed according to manufacturer's protocols (Lipofectamine™ 3000, ThermoFisher). Transfected cells were selected, seeded onto 96-well plates and treated with serial dilutions of the test compounds for 6.5 hr. Following treatment, cell viability was determined using a luminescent cell viability assay (Cell Counting-Lite Assay or “CCL Assay” from Vazyme Biotech Co., Ltd.) and cell free supernatants were collected and analyzed for IL-8 protein by IL-8 ELISA as described above. […] As shown in the figure, very little IL-8 was detectable in cells transfected with any of the empty vector, hALPK1, or the kinase dead hALPK1 mutant. In contrast, both of the activating mutations in hALPK1 induced significant IL-8 secretion.
For the V1092A mutant study shown in Table 4, HEK293 cells were transiently transfected with hALPK1-V1092A or hALPK1 (wildtype) expression vectors and then treated with test compounds for 24 hours. Fresh medium and compound were added at 18 hours.

[2] = test system: ALPK1-dependent NFκB reporter gene activation; test: NFκB gene reporter alkaline phosphatase assay in HEK293 G9 cells; type: cell-based; conditions: Homo sapiens; HEK293 G9 cells stimulated with D-glycero-D-manno-6-fluoro-heptose-1β-S-ADP
Description: An alkaline phosphatase reporter assay system was used to measure inhibition of ALPK1-dependent NFκB reporter gene activation. Briefly, HEK293 cells stably expressing an NF-kB reporter (referred to herein as “G9 cells”) were maintained in DMEM as described above. For the assay, cells were seeded into 96-well plates at a density of 10,000 cells/well in Freestyle™ 293 Expression Medium (ThermoFisher), and allowed to attach overnight. Cells were pretreated with serially diluted compounds for 30 min and then stimulated with D-glycero-D-manno-6-fluoro-heptose-1β-S-ADP. […] NFkB gene activation was detected using the chromogenic substrate, para-nitrophenyl phosphate (pNPP) according to the manufacturer's protocols (pNPP Phosphatase Assay, Beyotime Biotechnology).

[3] = molecular target: T237M hALPK1 mutant (Homo sapiens (Human), UniProt Q96QP1, T237M); test: Inhibition of IL-8 secretion in HEK293 cells (A2) stably expressing T237M hALPK1 mutant; type: cell-based; conditions: 40 hours with compound, IL-8 ELISA, relative to wild-type HEK293 cells, read-out: Half maximal inhibitory concentration (IC50) of IL-8 secretion in cells expressing T237M mutant
Description: as §1, §2
Next, we tested a representative set of compounds for inhibition of IL-8 secretion in cells expressing each of the activating ALPK1 mutants, T237M and V1092A. […] For the T237M mutant study, we produced an HEK293 cell line (“A2”) stably expressing the T237M hALPK1 mutant. A2 cells were cultured in the presence of test compound for 40 hours total. Fresh medium and compound were added at 24 hours. Cell viability and IL-8 secretion were determined 16 hours after the second addition of compound, using the CCL assay and IL-8 ELISA as described above.

[4] = molecular target: ALPK1 (Homo sapiens (Human), UniProt Q96QP1); test: ALPK1 in vitro kinase assay (HTRF, TIFA phosphorylation); type: biochemical; conditions: ADP-Heptose activated ALPK1
Description: ALPK1 kinase activity was measured in an in vitro assay using ADP-Heptose as the ALPK1 ligand and activator of its kinase activity and TIFA protein as the ALPK1 phosphorylation substrate. Since phosphorylated TIFA proteins oligomerize, Homogeneous Time-Resolved Fluorescence (HTRF) was used to measure protein:protein interaction between HA-tagged TIFA proteins as an indicator of TIFA phosphorylation.
In brief, dose-response studies were performed with HEK293 cells cultured in Dulbecco's Modified Eagle Medium (DMEM) supplemented 10% fetal bovine serum (FBS, Hyclone™) containing antibiotics (pen/strep, G418) in 384-well assay plates. Each well contained 0.1 mg TIFA, ALPK1 (2 nM final concentration in reaction mixture) and kinase buffer (100 mM of HEPES pH 7.4, 4 mM DTT, 40 mM MgCl2, 20 mM of β-Glycerol phosphate disodium salt, 0.4 mM of Na3VO4, 0.16 mg/mL). Titrations of the test compounds were prepared in dimethylsulphoxide (DMSO). The reaction was initiated by addition of ATP and ADP-Heptose.
For HTRF, samples were incubated with a Tb cryptate-labeled anti-HA antibody for capturing HA-tagged proteins according to the manufacturer's instructions (PerkinElmer™, CisBio™) and the fluorescence signal was quantified (Tecan Infinite F NANO+). HTRF signals were calculated as the HTRF ratio (ratio of fluorescence measured at 665 nm and 620 nm)×104 (thereby using the signal at 620 nm as an internal standard).
IC50 values were determined using 3- or 4-parameter logistic equation using GraphPad Prism version 6.00. The reference compound, A027, was used as a positive control for each plate.

ALPK1, sequence (Q96QP1 whole entry): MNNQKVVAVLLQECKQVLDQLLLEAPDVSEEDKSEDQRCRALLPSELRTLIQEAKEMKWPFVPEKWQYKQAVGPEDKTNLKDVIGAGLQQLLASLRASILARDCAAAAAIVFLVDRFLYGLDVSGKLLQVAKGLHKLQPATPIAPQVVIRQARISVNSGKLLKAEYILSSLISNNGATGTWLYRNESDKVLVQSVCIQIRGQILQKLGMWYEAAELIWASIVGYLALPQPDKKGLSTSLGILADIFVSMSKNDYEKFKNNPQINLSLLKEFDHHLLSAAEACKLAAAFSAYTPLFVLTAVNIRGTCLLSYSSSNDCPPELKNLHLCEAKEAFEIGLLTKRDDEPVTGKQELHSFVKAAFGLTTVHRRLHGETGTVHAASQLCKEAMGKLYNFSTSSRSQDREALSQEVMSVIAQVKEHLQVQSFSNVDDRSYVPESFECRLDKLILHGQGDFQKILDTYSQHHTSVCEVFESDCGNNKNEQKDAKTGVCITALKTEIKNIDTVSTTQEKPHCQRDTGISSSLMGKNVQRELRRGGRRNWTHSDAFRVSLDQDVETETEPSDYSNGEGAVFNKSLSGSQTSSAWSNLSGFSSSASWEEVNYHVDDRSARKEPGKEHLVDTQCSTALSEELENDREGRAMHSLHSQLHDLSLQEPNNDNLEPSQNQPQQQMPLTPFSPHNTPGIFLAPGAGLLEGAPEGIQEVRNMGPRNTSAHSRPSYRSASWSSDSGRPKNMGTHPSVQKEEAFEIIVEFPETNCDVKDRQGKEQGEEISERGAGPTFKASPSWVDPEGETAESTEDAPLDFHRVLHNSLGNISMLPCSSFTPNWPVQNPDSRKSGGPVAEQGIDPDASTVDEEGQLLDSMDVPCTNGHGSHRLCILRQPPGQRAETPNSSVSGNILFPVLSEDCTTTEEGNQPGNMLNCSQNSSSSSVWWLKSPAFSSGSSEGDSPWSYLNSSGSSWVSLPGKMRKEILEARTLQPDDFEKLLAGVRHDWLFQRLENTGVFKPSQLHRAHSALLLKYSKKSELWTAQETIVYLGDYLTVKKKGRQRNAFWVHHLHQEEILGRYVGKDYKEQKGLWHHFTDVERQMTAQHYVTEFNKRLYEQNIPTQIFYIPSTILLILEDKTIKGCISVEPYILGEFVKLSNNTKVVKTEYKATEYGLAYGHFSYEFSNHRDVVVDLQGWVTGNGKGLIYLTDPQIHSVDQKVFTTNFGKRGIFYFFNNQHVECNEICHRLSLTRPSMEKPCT
T237M hALPK1 mutant, sequence (Q96QP1 whole entry T237M): as the sequence (Q96QP1 whole entry) above, with T237M counted along it
hALPK1-V1092A, sequence (Q96QP1 whole entry V1092A): as the sequence (Q96QP1 whole entry) above, with V1092A counted along it

Row | Compound | IC50 [1] | IC50 [2] | IC50 [3] | IC50 [4]
1 | COc1cccc2sc(NC(=O)c3c(F)cc(N4CCNCC4)cc3F)nc12 [Compound T017, 2,6-difluoro-N-(4-methoxybenzo[d]thiazol-2-yl)-4-(piperazin-1-yl)benzamide hydrochloride] | 5030 nM | 690 nM | 1470 nM | 14 nM
2 | O=C(Nc1nc2c(Br)cccc2s1)c1c(F)cc(N2CCNCC2)cc1F [Compound T019, N-(4-bromobenzo[d]thiazol-2-yl)-2,6-difluoro-4-(piperazin-1-yl)benzamide hydrochloride] | 3170 nM | 760 nM | 668 nM | 11 nM
3 | C#Cc1cccc2sc(NC(=O)c3c(F)cc(N4CCN(C)CC4)cc3F)nc12 [Compound T047, N-(4-ethynylbenzo[d]thiazol-2-yl)-2,6-difluoro-4-(4-methylpiperazin-1-yl)benzamide] | 1810 nM | 810 nM | 635 nM | 13 nM
4 | C#Cc1cccc2sc(NC(=O)c3c(C)cc(N4CCNCC4)cc3F)nc12 [Compound T050, N-(4-ethynylbenzo[d]thiazol-2-yl)-2-fluoro-6-methyl-4-(piperazin-1-yl)benzamide] | – | 960 nM | – | 98 nM
5 | C#Cc1cccc2sc(NC(=O)c3c(F)cc(N4CCNCC4C(C)C)cc3F)nc12 (stereo not drawn) [Compound T051, N-(4-ethynylbenzo[d]thiazol-2-yl)-2,6-difluoro-4-(2-isopropylpiperazin-1-yl)benzamide] | – | 1590 nM | – | 56 nM
6 | C#Cc1cccc2sc(NC(=O)c3c(F)cc(N4CCNCC4CC)cc3F)nc12 (stereo not drawn) [Compound T052, 4-(2-ethylpiperazin-1-yl)-N-(4-ethynylbenzo[d]thiazol-2-yl)-2,6-difluorobenzamide] | – | 1320 nM | – | 58 nM
7 | C#Cc1cccc2sc(NC(=O)c3c(F)cc(N4CC[C@@H](N)C4)cc3F)nc12 [Compound T053, (R)-4-(3-aminopyrrolidin-1-yl)-N-(4-ethynylbenzo[d]thiazol-2-yl)-2,6-difluorobenzamide] | – | 890 nM | – | 83 nM
8 | C#Cc1cccc2sc(NC(=O)c3c(F)cc(N4CCNC[C@@H]4C)cc3F)nc12 [Compound T054, (S)-N-(4-ethynylbenzo[d]thiazol-2-yl)-2,6-difluoro-4-(2-methylpiperazin-1-yl)benzamide] | 226 nM | 270 nM | 225 nM | 36 nM
9 | C#Cc1cccc2sc(NC(=O)c3c(F)cc(N4CCN(C(N)=O)CC4)cc3F)nc12 [Compound T055, 4-(4-((4-ethynylbenzo[d]thiazol-2-yl)carbamoyl)-3,5-difluorophenyl)piperazine-1-carboxamide] | – | 2150 nM | – | 126 nM
10 | C#Cc1cccc2sc(NC(=O)c3c(F)cc(N4CCNCC4C)cc3F)nc12 (stereo not drawn) [Compound T059, N-(4-ethynylbenzo[d]thiazol-2-yl)-2,6-difluoro-4-(2-methylpiperazin-1-yl)benzamide] | – | 550 nM | – | 43 nM
11 | C#Cc1cccc2sc(NC(=O)c3c(F)ccc(N4CCNCC4)c3F)nc12 [Compound T060, N-(4-ethynylbenzo[d]thiazol-2-yl)-2,6-difluoro-3-(piperazin-1-yl)benzamide] | 5380 nM | 1250 nM | 2140 nM | 44 nM
12 | C#Cc1cccc2sc(NC(=O)c3c(F)cc(N4CCNC[C@H]4C)cc3F)nc12 [Compound T061, (R)-N-(4-ethynylbenzo[d]thiazol-2-yl)-2,6-difluoro-4-(2-methylpiperazin-1-yl)benzamide] | – | 300 nM | – | 30 nM
13 | C#Cc1cccc2sc(NC(=O)c3c(F)cc(N4CC[C@H](N)C4)cc3F)nc12 [Compound T062, (S)-4-(3-aminopyrrolidin-1-yl)-N-(4-ethynylbenzo[d]thiazol-2-yl)-2,6-difluorobenzamide] | – | 880 nM | – | 89 nM
14 | C#Cc1cccc2sc(NC(=O)c3c(F)cc(N4CCOCC4)cc3F)nc12 [Compound T063, N-(4-ethynylbenzo[d]thiazol-2-yl)-2,6-difluoro-4-morpholinobenzamide] | – | 1280 nM | – | 165 nM
15 | C#Cc1cc(F)cc2sc(NC(=O)c3c(F)ccc(N4CCNCC4)c3F)nc12 [Compound T064, N-(4-ethynyl-6-fluorobenzo[d]thiazol-2-yl)-2,6-difluoro-3-(piperazin-1-yl)benzamide] | – | 1030 nM | 1690 nM | 51 nM
16 | C#Cc1cccc2sc(NC(=O)c3c(F)cc(N4CCN(Cc5ccc(F)cc5)CC4)cc3F)nc12 [Compound T065, N-(4-ethynylbenzo[d]thiazol-2-yl)-2,6-difluoro-4-(4-(4-fluorobenzyl)piperazin-1-yl)benzamide] | – | 6580 nM | – | 182 nM
17 | C#Cc1cccc2sc(NC(=O)c3c(F)cc(-n4ccnc4)cc3F)nc12 [Compound T066, N-(4-ethynylbenzo[d]thiazol-2-yl)-2,6-difluoro-4-(1H-imidazol-1-yl)benzamide] | – | 1560 nM | – | 367 nM
